# Experimental data from the supplement of paper PMC10307832.
# Experiments:
# Experiment in all cases: relative viability (nuclei count vs DMSO), 5 days (fraction); higher = more cells survive
# [1] = compound: Nc1nc2[nH]cc(CCc3ccc(C(=O)N[C@@H](CCC(=O)O)C(=O)O)cc3)c2c(=O)[nH]1 [Pemetrexed] + Cc1nc(Nc2ncc(C(=O)Nc3c(C)cccc3Cl)s2)cc(N2CCN(CCO)CC2)n1 [Dasatinib] (partner 0.075 µM)
# Method in brief: (§1)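 Lung cancer cell lines, seeded in 1536-well plates, were treated the following day by pin tool with a single drug or with five library-drug doses (not always all listed) in √10 steps on top of a fixed anchor-drug dose. Cells were fixed and nuclei stained in one step after 5 days, and nuclei were counted. Relative viability is the nuclei count for treated wells divided by that for vehicle wells, reported as medians of duplicate plates.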
# [2] = compound: Nc1nc2[nH]cc(CCc3ccc(C(=O)N[C@@H](CCC(=O)O)C(=O)O)cc3)c2c(=O)[nH]1 [Pemetrexed] + CC1(C)CCC(c2ccc(Cl)cc2)=C(CN2CCN(c3ccc(C(=O)NS(=O)(=O)c4ccc(N[C@H](CCN5CCOCC5)CSc5ccccc5)c(S(=O)(=O)C(F)(F)F)c4)cc3)CC2)C1 [Navitoclax] (partner 0.5 µM)
# Method in brief: as §1
# [3] = compound: CC[C@H](Nc1ncnc2[nH]cnc12)c1nc2cccc(F)c2c(=O)n1-c1ccccc1 [Idelalisib] + Nc1ncn([C@H]2C[C@H](O)[C@@H](CO)O2)c(=O)n1 [Decitabine] (partner 2 µM)
# Method in brief: as §1
# [4] = compound: CC[C@H](Nc1ncnc2[nH]cnc12)c1nc2cccc(F)c2c(=O)n1-c1ccccc1 [Idelalisib] + Cc1nc(Nc2ncc(C(=O)Nc3c(C)cccc3Cl)s2)cc(N2CCN(CCO)CC2)n1 [Dasatinib] (partner 0.075 µM)
# Method in brief: as §1
Cell Line,relative viability ([1]; first compound 0.002 µM),relative viability ([1]; first compound 0.006325 µM),relative viability ([1]; first compound 0.02 µM),relative viability ([1]; first compound 0.06325 µM),relative viability ([1]; first compound 0.2 µM),relative viability ([2]; first compound 0.002 µM),relative viability ([2]; first compound 0.006325 µM),relative viability ([2]; first compound 0.02 µM),relative viability ([2]; first compound 0.06325 µM),relative viability ([2]; first compound 0.2 µM),relative viability ([3]; first compound 0.04 µM),relative viability ([3]; first compound 0.1265 µM),relative viability ([3]; first compound 0.4 µM),relative viability ([3]; first compound 1.265 µM),relative viability ([3]; first compound 4 µM),relative viability ([4]; first compound 0.04 µM),relative viability ([4]; first compound 0.1265 µM),relative viability ([4]; first compound 0.4 µM),relative viability ([4]; first compound 4 µM),relative viability ([4]; first compound 1.265 µM)
NCI-H23,0.783,0.762,0.933,0.74,0.781,0.808,0.756,1.07,0.788,0.858,0.331,0.339,0.309,0.313,0.329,0.808,0.828,0.552,0.825,–
LOU-NH91,0.495,0.576,0.599,0.457,0.345,0.629,0.727,0.708,0.431,0.416,0.789,0.84,0.79,0.78,0.816,0.599,0.561,0.482,0.542,0.42
NCI-H2009,0.299,0.289,0.377,0.265,0.307,1.15,1.11,1.18,1.12,1.04,0.4,0.35,0.322,0.405,0.381,0.335,0.302,0.266,0.197,0.252
NCI-H2126,0.571,0.607,0.625,0.548,0.517,0.828,0.827,0.882,0.833,0.82,0.545,0.56,0.532,0.548,0.524,0.548,0.664,0.522,0.557,0.62
ChaGo-K-1,0.59,0.555,0.591,0.266,0.237,1.03,0.969,0.914,0.296,0.306,0.515,0.404,0.524,0.538,0.46,0.548,0.516,0.534,0.585,0.563
NCI-H1437,–,0.473,0.468,0.334,0.21,0.988,1.05,1.02,0.575,0.291,0.55,0.59,0.62,0.635,0.55,0.378,0.46,0.307,0.478,0.453
SK-LU-1,0.184,0.205,0.185,0.198,0.162,0.881,0.813,0.791,0.901,0.817,0.645,0.605,0.581,0.706,0.618,0.165,0.163,0.153,0.186,0.153
NCI-H838,0.361,0.285,0.262,0.212,0.218,1.17,1.12,1.33,0.893,0.361,0.467,0.44,0.478,0.563,0.464,0.248,0.307,0.219,0.345,0.283
NCI-H1755,0.397,0.409,0.448,0.436,0.379,0.94,0.918,1.03,0.992,0.898,0.724,0.637,0.729,0.7,0.803,0.399,0.456,0.312,0.338,0.366
NCI-H1915,0.236,0.313,0.313,0.306,0.319,0.773,0.757,0.772,0.764,0.783,0.256,0.249,0.269,0.253,0.256,0.425,0.316,0.284,0.3,0.357
NCI-H2347,0.269,0.169,0.351,0.319,0.272,0.659,0.805,0.776,0.619,0.391,0.612,0.589,0.752,0.621,0.512,0.416,0.346,0.25,0.325,0.292
HARA,0.231,0.237,0.327,0.2,0.162,1,1.1,1.17,1.08,0.381,0.642,0.62,–,0.548,0.586,0.279,0.235,0.174,0.238,0.228
NCI-H2085,0.23,0.228,0.291,0.23,0.242,1.05,1.18,1.07,1.12,1.15,0.528,0.57,0.622,0.596,0.61,0.244,0.19,0.188,0.19,0.246
NCI-H727,–,0.395,0.386,0.421,0.381,0.422,0.474,0.583,0.428,0.527,1.03,0.747,0.867,0.881,0.889,0.461,0.397,–,0.386,0.353
NCI-H1993,0.325,0.606,0.546,0.496,0.358,0.808,0.832,0.859,0.917,0.804,0.53,0.584,0.588,0.545,0.501,0.785,0.562,0.51,0.522,0.51
EMC-BAC-2,0.161,0.344,0.32,0.331,0.27,1.14,1.09,1.21,1.2,1.09,1,1.03,0.942,1.05,0.941,0.319,0.337,0.283,0.346,0.321
NCI-H2087,0.819,0.808,0.974,0.751,0.59,0.946,0.951,0.951,0.749,0.746,0.357,0.337,0.217,0.244,0.269,0.966,0.906,0.696,0.514,1.03
NCI-H441,0.429,0.573,0.556,0.392,0.273,–,0.457,0.605,0.6,0.48,0.313,0.235,–,0.267,0.187,0.681,0.687,0.585,0.467,0.639
LXF-289,0.175,0.192,0.239,0.281,0.217,0.881,1,0.994,0.993,0.929,0.438,0.402,0.368,0.438,0.395,0.19,0.218,0.135,0.195,0.202
PC-3 [JPC-3],0.845,0.988,1.03,0.983,0.941,0.726,0.762,0.796,0.89,0.749,0.917,0.89,0.763,0.819,0.772,0.814,0.973,0.908,0.892,0.879
HCC-366,0.574,0.613,0.683,0.71,0.527,1.07,0.95,0.974,1.02,0.963,0.348,0.395,0.309,0.372,0.299,0.679,0.705,0.433,0.601,0.62
NCI-H1651,0.388,0.357,0.439,0.346,0.428,0.906,0.977,1.01,0.938,0.968,0.717,0.374,0.611,0.578,0.651,0.305,0.314,0.318,0.332,0.518
NCI-H1355,0.612,0.692,0.703,0.748,0.752,0.86,0.885,0.951,0.942,0.872,0.346,0.326,0.364,0.369,0.324,0.631,0.791,0.504,0.518,0.561
LC-2-ad,0.454,0.525,0.347,0.208,0.222,0.304,0.437,0.363,0.159,0.162,0.789,0.797,0.811,0.825,0.711,0.583,0.48,0.424,0.519,0.626
NCI-H1944,–,0.201,0.195,0.212,0.217,0.945,1.01,1.03,1.08,1.01,0.468,0.452,0.433,0.431,0.429,0.241,0.205,0.169,0.202,0.196
HCC-827,0.369,0.287,0.349,0.362,0.339,0.926,0.964,1.13,1.02,0.908,0.379,0.246,0.347,0.331,0.286,0.31,0.318,0.357,0.177,0.285
COR-L23,0.457,0.468,0.396,0.263,0.135,0.991,0.964,1.04,0.323,0.194,0.489,0.49,0.46,0.471,0.401,0.442,0.42,0.388,0.417,0.455
